Where a SMILES comes first, the peptide text is derived from it. The star is where a group is joined. Cbz = O=C(OCc1ccccc1)*; CH2F = FC*
Tests used:
[1] = test system: human neuroblastoma SK-N-MC cells; assay: Inhibition of ROS production induced by xanthine/xanthine oxidase (H2DCFDA probe, LDH-normalized); format: cell-based; details: XXO 10 μM-100 mU/ml, AA 100 μM, positive control
Experimental: The assay was performed on human neuroblastoma SK-N-MC cells in culture from the American Type Culture Collection (ATCC) (HTB-10), in all cases strict rules of sterility were followed and the manipulation was performed in class II biological safety cabinets following European standard EN 12469. The cells were maintained in Minimum Essential Medium Eagle (MEM) culture medium supplemented with 1 mM sodium pyruvate, 2 mM L-glutamine, 0.1 mM non-essential amino acids, 0.05 mg/ml gentamicin and 10% fetal bovine serum.
The inhibition by the NST0003 compound [(1S,3R,7S,8S,8aR)-1,2,3,7,8,8a-hexahydro-3,7-dimethyl-8-[2-[(2R,4R)-tetrahydro-4-hydroxy-6-oxo-2H-pyran-2-yl]ethyl-1-naphthalenyl propanoate] on the production of reactive oxygen species (ROS) in the SK-N-MC cells, was analyzed. […]
The cells were incubated (at 37° C. and 5% CO2) with these treatments for 3 h, after which time they were washed with HKRB buffer (20 mM HEPES, 103 mM NaCl, 4.77 mM KCl, 0.5 mM CaCl2, 1.2 mM MgCl2, 1.2 mM KH2PO4, 25 mM […], 15 mM glucose; at pH 7.3) after which the 2′,7′-dichlorodihydrofluorescein diacetate (H2DCFDA) probe was added at 30 μM diluted in HKRB buffer and it was incubated for another 2 hours in the same conditions. The reading of the plate was taken in a fluorometer at the conditions of 485 nm for excitation and 538 nm for emission. […]

[2] = test system: caspase 3/7 activation in SK-N-MC cells; assay: Inhibition of camptothecin-induced caspase 3/7 activation (Apo-ONE kit); format: cell-based, human; details: camptothecin 50 μM, 6 h, Z-VAD-fmk 50 μM
Experimental: To that end, the inhibition caused by (1S,3R,7S,8S,8aR)-1,2,3,7,8,8a-hexahydro-3,7-dimethyl-8-[2-[(2R,4R)-tetrahydro-4-hydroxy-6-oxo-2H-pyran-2-yl]ethyl-1-naphthalenyl 2,2-dimethylpropanoate (NST0005) of apoptosis caused by the treatment with camptothecin (Campt) on the SK-N-MC cells in culture was analyzed following the working conditions specified in section 3.1. Apoptosis can be quantified by measuring effector caspase activation. Caspases (proteins belonging to the cysteine-protease group) mediate the cleavage of a series of proteins triggering the signaling cascade which leads cells to apoptosis. […] The active cellular caspases 3 or 7 cause the cleavage of the substrate, emitting fluorescence which is read by means of a fluorometer.
The effect of the pretreatment of the NST0005 compound at 40 and 100 μg/ml on caspase 3/7 activation caused by 50 μM of camptothecin (Campt) in the SK-N-MC cells was thus analyzed. […]
The cells were incubated (at 37° C. and 5% CO2) with these treatments for 6 h, after which time the lysis buffer and the substrate rhodamine 110 were added at the concentrations specified by the manufacturer; they were incubated at room temperature for 30 minutes and the cells were then frozen at −20° C. overnight. They were thawed the next day and the reading of the plate was taken in a fluorometer at 499 nm for excitation and 521 nm for emission.

SK-N-MC cells = assay: Inhibition of camptothecin-induced apoptosis by flow cytometry (propidium iodide, sub-G1); format: cell-based, human; details: camptothecin 50 μM, 6 h, Z-VAD-fmk 50 μM
Experimental: To that end, the inhibition caused by the NST0005 compound of apoptosis caused by the treatment with camptothecin (Campt) was analyzed. The SK-N-MC cells, not exceeding 15 passages, were seeded on 6-well plates treated for adherent cells with a cell concentration of 8×10^5 cells/well; 2 wells of the plate were seeded for each condition of the assay.
After 24 h of cell incubation at 37° C. and 5% CO2 the cell treatments were performed with 2 ml of total volume for the following conditions: (i), control (culture medium); (ii), camptothecin [50 μM]; (iii) camptothecin [50 μM] and Z-VAD-fmk [50 μM] (Alexis), as positive control of inhibition; and (iv), 50 μM camptothecin with NST0005 at different concentrations [4, 10, 40 and 100 μg/ml].
The cells were incubated (at 37° C. and 5% CO2) with these treatments for 6 h, after which time they were pooled together with their culture medium and centrifuged at 300×g for 5 minutes. The medium was removed, a washing was performed with phosphate buffered saline (PBS) and they were fixed for 2 minutes with 500 μl of 70% ethanol at −20° C. […] After this time, they were analyzed by flow cytometry, comparing the fluorescence of the propidium iodine against the amount of DNA. The percentage of apoptosis was measured on the sub-G1 region of each of the conditions. […]

SMILES | inhibition at 100 µM [1] | inhibition of caspase 3/7 activation [2] | inhibition of apoptosis caused by camptothecin (flow cytometry) (SK-N-MC cells)
O=C1O[C@H]([C@@H](O)CO)C(O)=C1O [AA, ascorbic acid, reference compound] | 80% |  | 
COC(=O)C[C@H](NC(=O)[C@H](C)NC(=O)[C@@H](NC(=O)OCc1ccccc1)C(C)C)C(=O)CF [Z-VAD-fmk, reference compound] (Cbz-Val-Ala-Asp(OMe)-CH2F) |  | completely inhibited | 30%

— US20110319484A1, “NEUROPROTECTIVE COMPOUNDS” (Parque Tecnologico de Ciencias de la Salud, priority 2009, published 2011)
